# Experimental data published in ChEMBL document CHEMBL3102697, “Controlled-deactivation cannabinergic ligands” (J Med Chem, 2013).
# Calls of active or inactive are those of the source. The rule behind the calls is not given here.
# Biological target: T1, Cannabinoid receptor 1 (Rattus norvegicus, UniProt P20272)
# Test: Agonist activity at rat CB1 receptor expressed in HEK293 cells assessed as inhibition of forskolin-stimulated cAMP accumulation after 30 mins
# Format: functional, cell-based
# Details: not given
# T1 sequence (P20272 whole entry): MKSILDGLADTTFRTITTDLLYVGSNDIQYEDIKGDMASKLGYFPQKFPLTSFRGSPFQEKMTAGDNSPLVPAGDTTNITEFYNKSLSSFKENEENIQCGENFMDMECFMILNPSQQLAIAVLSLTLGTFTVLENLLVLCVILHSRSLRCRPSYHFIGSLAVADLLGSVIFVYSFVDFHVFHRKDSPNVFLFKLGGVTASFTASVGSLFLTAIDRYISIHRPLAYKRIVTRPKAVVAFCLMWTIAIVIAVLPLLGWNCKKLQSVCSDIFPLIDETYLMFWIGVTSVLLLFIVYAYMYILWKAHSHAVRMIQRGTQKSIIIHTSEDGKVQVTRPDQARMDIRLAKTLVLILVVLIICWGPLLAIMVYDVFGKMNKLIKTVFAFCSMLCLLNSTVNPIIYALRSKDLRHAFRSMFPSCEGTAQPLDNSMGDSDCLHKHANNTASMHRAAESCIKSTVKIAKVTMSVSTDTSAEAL
row,SMILES,EC50 [nM]
1,CCCCOC(=O)C(C)(C)c1cc(O)c2c(c1)OC(C)(C)[C@@H]1CC=C(C)C[C@@H]21,0.5
2,CCCCOC(=O)[C@@H](C)c1cc(O)c2c(c1)OC(C)(C)[C@@H]1CC=C(C)C[C@@H]21,4.2
3,CCCCOC(=O)C1(c2cc(O)c3c(c2)OC(C)(C)[C@@H]2CC=C(C)C[C@@H]32)CCC1,0.4

# Biological target: Cannabinoid receptor 1 (Rattus norvegicus) (UniProt P20272)
# Sequence (P20272 whole entry): as above
# Test: Agonist activity at rat CB1 receptor expressed in HEK293 cells assessed as inhibition of forskolin-stimulated cAMP accumulation up to 5 uM after 30 mins
# Format: functional, cell-based
# Details: not given
row,SMILES,inhibition
1,CCCCOC(=O)[C@H](C)c1cc(O)c2c(c1)OC(C)(C)[C@@H]1CC=C(C)C[C@@H]21,inactive
2,CCCCOC(=O)Cc1cc(O)c2c(c1)OC(C)(C)[C@@H]1CC=C(C)C[C@@H]21,inactive

# Biological target: Cannabinoid receptor 1 (Rattus norvegicus) (UniProt P20272)
# Test: Agonist activity at rat CB1 receptor expressed in HEK293 cells assessed as inhibition of forskolin-stimulated cAMP accumulation at 500 nM after 30 mins relative to CP-55,940
# Format: functional, cell-based
# Details: not given
row,SMILES,Emax [%]
1,CCCCOC(=O)C(C)(C)c1cc(O)c2c(c1)OC(C)(C)[C@@H]1CC=C(C)C[C@@H]21,92
2,CCCCOC(=O)[C@@H](C)c1cc(O)c2c(c1)OC(C)(C)[C@@H]1CC=C(C)C[C@@H]21,63
3,CCCCOC(=O)C1(c2cc(O)c3c(c2)OC(C)(C)[C@@H]2CC=C(C)C[C@@H]32)CCC1,90

# System: Plasma
# Test: Half life in rat plasma at 200 uM by HPLC analysis
# Format: ADME, cell-free
# Details: not given
row,SMILES,t1/2 [min]
1,CCCCOC(=O)[C@H](C)c1cc(O)c2c(c1)OC(C)(C)[C@@H]1CC=C(C)C[C@@H]21,10.5
2,CCCCOC(=O)C(C)(C)c1cc(O)c2c(c1)OC(C)(C)[C@@H]1CC=C(C)C[C@@H]21,120
3,CCCCOC(=O)[C@@H](C)c1cc(O)c2c(c1)OC(C)(C)[C@@H]1CC=C(C)C[C@@H]21,4.3
4,CCCCOC(=O)C1(c2cc(O)c3c(c2)OC(C)(C)[C@@H]2CC=C(C)C[C@@H]32)CCC1,263
5,CCCCOC(=O)Cc1cc(O)c2c(c1)OC(C)(C)[C@@H]1CC=C(C)C[C@@H]21,< 0.5

# System: Rattus norvegicus
# Test: Induction of hypothermia in Sprague-Dawley rat at 0.3 mg/kg, sc up to 6 hrs
# Format: functional, organism-based
# Parameters: dose 0.3 mg/kg
# Details: not given
row,SMILES,Activity
1,CCCCOC(=O)C(C)(C)c1cc(O)c2c(c1)OC(C)(C)[C@@H]1CC=C(C)C[C@@H]21,Active

# System: Rattus norvegicus
# Test: Induction of hypothermia in sc dosed Sprague-Dawley rat measured for 6 hrs
# Format: functional, organism-based
# Details: not given
row,SMILES,Activity
1,CC1=CC[C@@H]2[C@@H](C1)c1c(O)cc([C@@H](C)C(=O)O)cc1OC2(C)C,inactive
2,CCCCOC(=O)C(C)(C)c1cc(O)c2c(c1)OC(C)(C)[C@@H]1CC=C(C)C[C@@H]21,Dose-dependent effect
3,CC1=CC[C@@H]2[C@@H](C1)c1c(O)cc([C@H](C)C(=O)O)cc1OC2(C)C,inactive
4,CCCCOC(=O)[C@@H](C)c1cc(O)c2c(c1)OC(C)(C)[C@@H]1CC=C(C)C[C@@H]21,Dose-dependent effect
5,CCCCOC(=O)C1(c2cc(O)c3c(c2)OC(C)(C)[C@@H]2CC=C(C)C[C@@H]32)CCC1,Dose-dependent effect
6,CC1=CC[C@@H]2[C@@H](C1)c1c(O)cc(C(C)(C)C(=O)O)cc1OC2(C)C,inactive
7,CC1=CC[C@@H]2[C@@H](C1)c1c(O)cc(C3(C(=O)O)CCC3)cc1OC2(C)C,inactive
8,CC1=CC[C@@H]2[C@@H](C1)c1c(O)cc(CC(=O)O)cc1OC2(C)C,inactive

# System: Rattus norvegicus
# Test: Induction of hypothermia in Sprague-Dawley rat at 0.3 mg/kg, sc measured at 12 hrs
# Format: functional, organism-based
# Parameters: dose 0.3 mg/kg
# Details: not given
row,SMILES,Activity
1,CCCCCCC(C)(C)c1cc(O)c2c(c1)OC(C)(C)[C@@H]1CC=C(C)C[C@@H]21,Active

# System: Rattus norvegicus
# Test: Induction of hypothermia in Sprague-Dawley rat at 0.1 to 3 mg/kg, sc measured for 6 hrs
# Format: functional, organism-based
# Details: not given
row,SMILES,Activity
1,CCCCOC(=O)[C@H](C)c1cc(O)c2c(c1)OC(C)(C)[C@@H]1CC=C(C)C[C@@H]21,inactive
2,CCCCOC(=O)Cc1cc(O)c2c(c1)OC(C)(C)[C@@H]1CC=C(C)C[C@@H]21,inactive
3,CCCCCCC(C)(C)c1cc(O)c2c(c1)OC(C)(C)[C@@H]1CC=C(C)C[C@@H]21,Active

# System: Rattus norvegicus
# Test: Induction of hypothermia in Sprague-Dawley rat at 3 mg/kg, sc after 60 mins
# Format: functional, organism-based
# Parameters: dose 3 mg/kg
# Details: not given
row,SMILES,Activity
1,CCCCOC(=O)C(C)(C)c1cc(O)c2c(c1)OC(C)(C)[C@@H]1CC=C(C)C[C@@H]21,Active

# Biological target: T1, Cannabinoid receptor 1
# Test: Displacement of [3H]CP-55,940 from CB1 receptor in rat brain by scintillation counting analysis
# Format: tissue-based
# Details: not given
row,SMILES,Ki [nM]
1,CC1=CC[C@@H]2[C@@H](C1)c1c(O)cc([C@@H](C)C(=O)O)cc1OC2(C)C,> 10000
2,CCCCOC(=O)[C@H](C)c1cc(O)c2c(c1)OC(C)(C)[C@@H]1CC=C(C)C[C@@H]21,1.6
3,CCCCOC(=O)C(C)(C)c1cc(O)c2c(c1)OC(C)(C)[C@@H]1CC=C(C)C[C@@H]21,0.3
4,CC1=CC[C@@H]2[C@@H](C1)c1c(O)cc([C@H](C)C(=O)O)cc1OC2(C)C,> 10000
5,CCCCOC(=O)[C@@H](C)c1cc(O)c2c(c1)OC(C)(C)[C@@H]1CC=C(C)C[C@@H]21,0.6
6,CCCCOC(=O)Cc1cc(O)c2c(c1)OC(C)(C)[C@@H]1CC=C(C)C[C@@H]21,27.1
7,CC1=CC[C@@H]2[C@@H](C1)c1c(O)cc(C(C)(C)C(=O)O)cc1OC2(C)C,> 10000
8,CC1=CC[C@@H]2[C@@H](C1)c1c(O)cc(C3(C(=O)O)CCC3)cc1OC2(C)C,> 10000
9,CC1=CC[C@@H]2[C@@H](C1)c1c(O)cc(CC(=O)O)cc1OC2(C)C,> 10000

# System: Rattus norvegicus
# Test: Induction of hypothermia in Sprague-Dawley rat at 1 to 3 mg/kg, sc measured for 6 hrs
# Format: functional
# Details: dose mg/kg 1-3; route subcutaneous
row,SMILES,T [°C]
1,CCCCOC(=O)C(C)(C)c1cc(O)c2c(c1)OC(C)(C)[C@@H]1CC=C(C)C[C@@H]21,3.6
2,CCCCOC(=O)[C@@H](C)c1cc(O)c2c(c1)OC(C)(C)[C@@H]1CC=C(C)C[C@@H]21,3.6
3,CCCCOC(=O)C1(c2cc(O)c3c(c2)OC(C)(C)[C@@H]2CC=C(C)C[C@@H]32)CCC1,3.6

# System: Rattus norvegicus
# Test: Induction of hypothermia in Sprague-Dawley rat at 3 mg/kg, sc after 6 hrs
# Format: functional, organism-based
# Parameters: dose 3 mg/kg
# Details: not given
row,SMILES,Activity
1,CCCCOC(=O)[C@H](C)c1cc(O)c2c(c1)OC(C)(C)[C@@H]1CC=C(C)C[C@@H]21,inactive
2,CCCCOC(=O)Cc1cc(O)c2c(c1)OC(C)(C)[C@@H]1CC=C(C)C[C@@H]21,inactive

# System: Rattus norvegicus
# Test: Induction of hypothermia in Sprague-Dawley rat at 1 mg/kg, sc after 90 to 120 mins
# Format: functional, organism-based
# Parameters: dose 1 mg/kg
# Details: not given
row,SMILES,Activity
1,CCCCOC(=O)C1(c2cc(O)c3c(c2)OC(C)(C)[C@@H]2CC=C(C)C[C@@H]32)CCC1,Active

# System: Mus musculus
# Test: Analgesic activity in CD-1 mouse assessed as tail-flick withdrawal latency at 0.3 to 1 mg/kg, ip
# Format: functional, organism-based
# Details: not given
row,SMILES,Activity
1,CCCCOC(=O)C(C)(C)c1cc(O)c2c(c1)OC(C)(C)[C@@H]1CC=C(C)C[C@@H]21,Active
2,CCCCCCC(C)(C)c1cc(O)c2c(c1)OC(C)(C)[C@@H]1CC=C(C)C[C@@H]21,Active

# System: Rattus norvegicus
# Test: Induction of hypothermia in Sprague-Dawley rat at 0.3 mg/kg, sc after 2 hrs
# Format: functional
# Details: route subcutaneous
row,SMILES,T [°C]
1,CCCCOC(=O)C(C)(C)c1cc(O)c2c(c1)OC(C)(C)[C@@H]1CC=C(C)C[C@@H]21,2

# System: Plasma
# Test: Half life in mouse plasma at 200 uM by HPLC analysis
# Format: ADME, cell-free
# Details: not given
row,SMILES,t1/2 [min]
1,CCCCOC(=O)[C@H](C)c1cc(O)c2c(c1)OC(C)(C)[C@@H]1CC=C(C)C[C@@H]21,5.9
2,CCCCOC(=O)C(C)(C)c1cc(O)c2c(c1)OC(C)(C)[C@@H]1CC=C(C)C[C@@H]21,12.4
3,CCCCOC(=O)[C@@H](C)c1cc(O)c2c(c1)OC(C)(C)[C@@H]1CC=C(C)C[C@@H]21,4
4,CCCCOC(=O)C1(c2cc(O)c3c(c2)OC(C)(C)[C@@H]2CC=C(C)C[C@@H]32)CCC1,36.3
5,CCCCOC(=O)Cc1cc(O)c2c(c1)OC(C)(C)[C@@H]1CC=C(C)C[C@@H]21,0.7

# Biological target: Cannabinoid receptor 2 (Mus musculus, UniProt P47936)
# Sequence (P47936 whole entry): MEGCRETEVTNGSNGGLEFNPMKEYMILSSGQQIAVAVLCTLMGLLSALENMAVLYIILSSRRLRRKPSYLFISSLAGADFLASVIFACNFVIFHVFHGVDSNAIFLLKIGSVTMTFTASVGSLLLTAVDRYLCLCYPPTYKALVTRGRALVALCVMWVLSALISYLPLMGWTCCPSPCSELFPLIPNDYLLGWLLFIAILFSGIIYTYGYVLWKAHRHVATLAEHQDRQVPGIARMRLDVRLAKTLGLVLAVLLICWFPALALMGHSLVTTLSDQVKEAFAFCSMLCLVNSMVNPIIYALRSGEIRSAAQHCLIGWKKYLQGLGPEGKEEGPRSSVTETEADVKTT
# Test: Displacement of [3H]CP-55,940 from mouse CB2 receptor expressed in HEK293 cell membranes by scintillation counting analysis
# Details: not given
row,SMILES,Ki [nM]
1,CC1=CC[C@@H]2[C@@H](C1)c1c(O)cc([C@@H](C)C(=O)O)cc1OC2(C)C,> 10000
2,CCCCOC(=O)[C@H](C)c1cc(O)c2c(c1)OC(C)(C)[C@@H]1CC=C(C)C[C@@H]21,4.5
3,CCCCOC(=O)C(C)(C)c1cc(O)c2c(c1)OC(C)(C)[C@@H]1CC=C(C)C[C@@H]21,2.1
4,CC1=CC[C@@H]2[C@@H](C1)c1c(O)cc([C@H](C)C(=O)O)cc1OC2(C)C,> 10000
5,CCCCOC(=O)[C@@H](C)c1cc(O)c2c(c1)OC(C)(C)[C@@H]1CC=C(C)C[C@@H]21,6.2
6,CCCCOC(=O)C1(c2cc(O)c3c(c2)OC(C)(C)[C@@H]2CC=C(C)C[C@@H]32)CCC1,3
7,CCCCOC(=O)Cc1cc(O)c2c(c1)OC(C)(C)[C@@H]1CC=C(C)C[C@@H]21,40.4
8,CC1=CC[C@@H]2[C@@H](C1)c1c(O)cc(C(C)(C)C(=O)O)cc1OC2(C)C,> 10000
9,CC1=CC[C@@H]2[C@@H](C1)c1c(O)cc(C3(C(=O)O)CCC3)cc1OC2(C)C,> 10000
10,CC1=CC[C@@H]2[C@@H](C1)c1c(O)cc(CC(=O)O)cc1OC2(C)C,> 10000

# Biological target: Cannabinoid receptor 2 (Homo sapiens, UniProt P34972)
# Sequence (P34972 whole entry): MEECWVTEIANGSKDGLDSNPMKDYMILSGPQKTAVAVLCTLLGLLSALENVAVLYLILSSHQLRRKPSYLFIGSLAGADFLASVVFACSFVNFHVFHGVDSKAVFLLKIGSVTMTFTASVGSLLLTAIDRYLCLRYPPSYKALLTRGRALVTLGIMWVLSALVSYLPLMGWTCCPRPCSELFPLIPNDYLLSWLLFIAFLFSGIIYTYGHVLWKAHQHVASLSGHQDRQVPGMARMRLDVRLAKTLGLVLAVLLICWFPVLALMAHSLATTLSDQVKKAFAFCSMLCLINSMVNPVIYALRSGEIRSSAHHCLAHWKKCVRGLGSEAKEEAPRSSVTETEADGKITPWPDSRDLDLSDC
# Test: Displacement of [3H]CP-55,940 from human CB2 receptor expressed in HEK293 cell membranes by scintillation counting analysis
# Details: not given
row,SMILES,Ki [nM]
1,CCCCOC(=O)[C@H](C)c1cc(O)c2c(c1)OC(C)(C)[C@@H]1CC=C(C)C[C@@H]21,3.7
2,CCCCOC(=O)C(C)(C)c1cc(O)c2c(c1)OC(C)(C)[C@@H]1CC=C(C)C[C@@H]21,1.7
3,CCCCOC(=O)[C@@H](C)c1cc(O)c2c(c1)OC(C)(C)[C@@H]1CC=C(C)C[C@@H]21,6.3
4,CCCCOC(=O)C1(c2cc(O)c3c(c2)OC(C)(C)[C@@H]2CC=C(C)C[C@@H]32)CCC1,3
5,CCCCOC(=O)Cc1cc(O)c2c(c1)OC(C)(C)[C@@H]1CC=C(C)C[C@@H]21,51.5

# System: Rattus norvegicus
# Test: Induction of hypothermia in Sprague-Dawley rat at 0.3 mg/kg, sc after 4 hrs
# Format: functional, organism-based
# Parameters: dose 0.3 mg/kg
# Details: not given
row,SMILES,Activity
1,CCCCCCC(C)(C)c1cc(O)c2c(c1)OC(C)(C)[C@@H]1CC=C(C)C[C@@H]21,Active

# System: Rattus norvegicus
# Test: Induction of hypothermia in Sprague-Dawley rat at 1 mg/kg, sc up to 300 mins
# Format: functional, organism-based
# Parameters: dose 1 mg/kg
# Details: not given
row,SMILES,Activity
1,CCCCOC(=O)C1(c2cc(O)c3c(c2)OC(C)(C)[C@@H]2CC=C(C)C[C@@H]32)CCC1,inactive

# System: Rattus norvegicus
# Test: Induction of hypothermia in Sprague-Dawley rat at 3 mg/kg, sc up to 300 mins
# Format: functional, organism-based
# Parameters: dose 3 mg/kg
# Details: not given
row,SMILES,Activity
1,CCCCOC(=O)C(C)(C)c1cc(O)c2c(c1)OC(C)(C)[C@@H]1CC=C(C)C[C@@H]21,inactive
2,CCCCOC(=O)[C@@H](C)c1cc(O)c2c(c1)OC(C)(C)[C@@H]1CC=C(C)C[C@@H]21,inactive

# System: Rattus norvegicus
# Test: Induction of hypothermia in Sprague-Dawley rat at 3 mg/kg, sc after 90 to 120 mins
# Format: functional, organism-based
# Parameters: dose 3 mg/kg
# Details: not given
row,SMILES,Activity
1,CCCCOC(=O)[C@@H](C)c1cc(O)c2c(c1)OC(C)(C)[C@@H]1CC=C(C)C[C@@H]21,Active
